In US11578085B2, “Heterocycle-substituted bicyclic azole pesticides” (FMC CORPORATION, priority 2013, dated 2023):
Where two headings read alike, the source gives them in different places.

Experiments:
Assay type in all cases: in vivo
[1] = system: sweetpotato whitefly (Bemisia tabaci (Gennadius)); experiment: Test F: control of sweetpotato whitefly on cotton plant (spray, contact and/or systemic); settings: 312 h
Method: (§1) Test compounds were formulated using a solution containing 10% acetone, 90% water and 300 ppm X-77® Spreader Lo-Foam Formula non-ionic surfactant containing alkylarylpolyoxyethylene, free fatty acids, glycols and isopropanol (Loveland Industries, Inc. Greeley, Colo., USA). The formulated compounds were applied in 1 mL of liquid through a SUJ2 atomizer nozzle with 1/8 JJ custom body (Spraying Systems Co. Wheaton, Ill., USA) positioned 1.27 cm (0.5 inches) above the top of each test unit. Test compounds were sprayed at the rates indicated, and each test was replicated three times.
For evaluating control of the sweetpotato whitefly (Bemisia tabaci (Gennadius)) through contact and/or systemic means, the test unit consisted of a small open container with a 12-14-day-old cotton plant inside. Prior to the spray application, both cotyledons were removed from the plant, leaving one true leaf for the assay. Adult whiteflies were allowed to lay eggs on the plant and then were removed from the test unit. Cotton plants infested with at least 15 eggs were submitted to the test for spraying.
Test compounds were formulated and sprayed at 250 and/or 50 ppm. After spraying, the test units were allowed to dry for 1 hour. The cylinders were then removed, and the units were taken to a growth chamber and held for 13 days at 28° C. and 50-70% relative humidity. Each test unit was then visually assessed for insect mortality.

[2] = system: green peach aphid (Myzus persicae (Sulzer)); experiment: Test C: control of green peach aphid on radish plant (spray, contact and/or systemic); settings: 144 h
Method: as §1
For evaluating control of green peach aphid (Myzus persicae (Sulzer)) through contact and/or systemic means, the test unit consisted of a small open container with a 12-15-day-old radish plant inside. This was pre-infested by placing on a leaf of the test plant 30-40 aphids on a piece of leaf excised from a culture plant (cut-leaf method). The aphids moved onto the test plant as the leaf piece desiccated. After pre-infestation, the soil of the test unit was covered with a layer of sand.
Test compounds were formulated and sprayed at 250 and/or 50 ppm. After spraying of the formulated test compound, each test unit was allowed to dry for 1 hour and then a black, screened cap was placed on top. The test units were held for 6 days in a growth chamber at 19-21° C. and 50-70% relative humidity. Each test unit was then visually assessed for insect mortality.

[3] = system: cotton melon aphid (Aphis gossypii (Glover)); experiment: Test D: control of cotton melon aphid on cotton plant (spray, contact and/or systemic); settings: 144 h, assessed after 6 days; for mortality at 50 ppm: sprayed at 50 ppm; for mortality at 250 ppm: sprayed at 250 ppm
Method: as §1
For evaluating control of cotton melon aphid (Aphis gossypii (Glover)) through contact and/or systemic means, the test unit consisted of a small open container with a 6-7-day-old cotton plant inside. This was pre-infested with 30-40 insects on a piece of leaf according to the cut-leaf method, and the soil of the test unit was covered with a layer of sand.
Test compounds were formulated and sprayed at 250 and/or 50 ppm. After spraying, the test units were maintained in a growth chamber for 6 days at 19° C. and 70% relative humidity. Each test unit was then visually assessed for insect mortality.

[4] = system: potato leafhopper (Empoasca fabae (Harris)); experiment: Test B: control of potato leafhopper on Soleil bean plant (spray, contact and/or systemic); settings: 144 h, sprayed at 250 ppm, assessed after 6 days
Method: as §1
For evaluating control of potato leafhopper (Empoasca fabae (Harris)) through contact and/or systemic means, the test unit consisted of a small open container with a 5-6-day-old Soleil bean plant (primary leaves emerged) inside. White sand was added to the top of the soil, and one of the primary leaves was excised prior to application of the test compound.
Test compounds were formulated and sprayed at 250 and/or 50 ppm. After spraying of the formulated test compound, the test units were allowed to dry for 1 hour before they were post-infested with 5 potato leafhoppers (18-to-21-day-old adults). […] Each test unit was then visually assessed for insect mortality.

[5] = sprayed at 250 ppm, assessed after 13 days, read-out: mortality
[6] = sprayed at 50 ppm, assessed after 6 days, read-out: mortality
[7] = sprayed at 250 ppm, assessed after 6 days, read-out: mortality

SMILES | mortality at 250 ppm [1, 5] [%] | mortality at 50 ppm [2, 6] [%] | mortality at 250 ppm [2, 7] [%] | mortality at 50 ppm [3] [%] | mortality at 250 ppm [3] [%] | mortality at 250 ppm [1] [%] | mortality at 50 ppm [2] [%] | mortality at 250 ppm [2] [%] | mortality at 250 ppm [4] [%]
CC(C)NC(=O)c1cccc2nn(-c3cccnc3)cc12 [Compound 8, N-(1-methylethyl)-2-(3-pyridinyl)-2H-indazole-4-carboxamide] | ≥ 50 | ≥ 80 | ≥ 80 | ≥ 80 | ≥ 80 |  |  |  | 
O=C(NC1CC1)c1cccc2nn(-c3cccnc3)cc12 [Compound 14, N-cyclopropyl-2-(3-pyridinyl)-2H-indazole-4-carboxamide] |  | ≥ 80 | ≥ 80 | ≥ 80 | ≥ 80 |  |  |  | 
O=C(NC1CCCCC1)c1cccc2nn(-c3cccnc3)cc12 [Compound 16, N-cyclohexyl-2-(3-pyridinyl)-2H-indazole-4-carboxamide] |  | ≥ 80 | ≥ 80 | ≥ 80 | ≥ 80 |  |  |  | 
O=C(NCC(F)(F)F)c1cccc2nn(-c3cccnc3)cc12 [Compound 19, 2-(3-pyridinyl)-N-(2,2,2-trifluoroethyl)-2H-indazole-4-carboxamide] |  | ≥ 80 | ≥ 80 | ≥ 80 | ≥ 80 |  |  |  | 
O=C(NCC1CCCO1)c1ccc2nn(-c3cccnc3)cc2c1 (stereo not shown) [Compound 41, 2-(3-pyridinyl)-N-[(tetrahydro-2-furanyl)methyl]-2H-indazole-5-carboxamide] |  | ≥ 80 | ≥ 80 | ≥ 80 | ≥ 80 |  |  |  | 
COC(=O)NNC(=O)c1ccc2nn(-c3cccnc3)cc2c1 [Compound 42, methyl 2-[[2-(3-pyridinyl)-2H-indazol-5-yl]carbonyl]hydrazinecarboxylate] | ≥ 50 | ≥ 80 | ≥ 80 | ≥ 80 |  |  |  |  | 
O=C(NCC1CC1(F)F)c1ccc2nn(-c3cccnc3)cc2c1 (stereo not shown) [Compound 51, N-[(2,2-difluorocyclopropyl)methyl]-2-(3-pyridinyl)-2H-indazole-5-carboxamide] |  | ≥ 80 | ≥ 80 | ≥ 80 | ≥ 80 |  |  |  | 
CC(F)(F)CNC(=O)c1ccc2nn(-c3cccnc3)cc2c1 [Compound 54, N-(2,2-difluoropropyl)-2-(3-pyridinyl)-2H-indazole-5-carboxamide] |  | ≥ 80 | ≥ 80 | ≥ 80 | ≥ 80 |  |  |  | 
O=C(NCc1ncccn1)c1ccc2nn(-c3cccnc3)cc2c1 [Compound 55, 2-(3-pyridinyl)-N-(2-pyrimidinylmethyl)-2H-indazole-5-carboxamide] |  | ≥ 80 | ≥ 80 | ≥ 80 | ≥ 80 |  |  |  | 
Cc1cnc(CNC(=O)c2ccc3nn(-c4cccnc4)cc3c2)cn1 [Compound 76, N-[(5-methyl-2-pyrazinyl)methyl]-2-(3-pyridinyl)-2H-indazole-5-carboxamide] |  | ≥ 80 | ≥ 80 | ≥ 80 |  |  |  |  | 
CSCCNC(=O)c1cccc2nc(-c3cccnc3)sc12 [Compound 84, N-[2-(methylthio)ethyl]-2-(3-pyridinyl)-7-benzothiazolecarboxamide] |  | ≥ 80 | ≥ 80 |  |  |  |  |  | 
O=C(NCC1CCCO1)c1ccc2nn(-c3ccc[n+]([O-])c3)cc2c1 (stereo not shown) [Compound 462] |  | ≥ 80 | ≥ 80 |  | ≥ 80 |  |  |  | 
O=C(NCCCl)c1ccc2nn(-c3cccnc3)cc2c1 [Compound 463] |  |  |  |  |  | ≥ 50 | ≥ 80 | ≥ 80 | 
O=C(NCC(F)(F)F)c1cccc2nn(-c3ccc[n+]([O-])c3)cc12 [Compound 466] |  |  |  |  |  |  |  |  | ≥ 80
